Experimental data published in article PMC6518372, “An enzymatically stable GIP/xenin hybrid peptide restores GIP sensitivity, enhances beta cell function and improves glucose homeostasis in high-fat-fed mice” (Diabetologia, 2016).
Where a SMILES comes first, the peptide text is derived from it. [ ]: non-standard residue; d: D form.

Assays:
BRIN-BD11 cells [1] = experiment: In vitro insulin secretion from BRIN-BD11 cells; assay type: cell-based, rat; details: peptide 10^−6 mol/l, antagonist 10^−6 mol/l, 5.6 mmol/l glucose, 20 min
Procedure: (§1) BRIN-BD11 cells were used to assess the insulin-releasing activity of test peptides, as described previously. This hybrid cell line (ECACC 10033003) was originally generated in-house by electrofusion of a primary culture of New England Deaconess Hospital (NEDH) rat pancreatic islets with RINm5F (a cell line derived from an NEDH rat insulinoma), and has been mycoplasma eradicated. For details of experimental conditions please see ESM Methods. Insulin was measured by radioimmunoassay. We assessed the impact of GIP and neurotensin receptors on (DAla^2)GIP/xenin-8-Gln-induced insulin secretion in BRIN-BD11 cells. Cells were incubated in 5.6 mmol/l glucose with (DAla^2)GIP/xenin-8-Gln (10^−6 mol/l) alone or in combination with the GIP receptor antagonist GIP(6-30)Cex-K^40[Pal] [32] (where Pal is palmitate) or the neurotensin receptor antagonist SR142948A (Sigma, Poole, UK), and insulin secretion determined as described above. In addition, to determine mechanisms, intracellular Ca^2+ was also measured in BRIN-BD11 cells following treatment with test peptides (10^−6 mol/l), using a Flexstation scanning fluorometer (FLIPR Calcium 5 assay kit; Molecular Devices, Sunnyvale, CA, USA), as described previously.
In vitro insulin release studies Cells were seeded at a density of 150,000 cells/well in 24-well plates (Nunc, Roskilde, Denmark) and allowed to attach overnight at 37 °C. Culture medium was removed and cells were pre-incubated in Krebs–Ringer bicarbonate buffer (containing 0.5% (w/v) BSA, pH 7.4) supplemented with 1.1 mmol/l glucose for 40 min at 37 °C. Following the pre-incubation, experiments (n=8) were performed in presence of glucose (5.6 or 16.7 mmol/l) with a […]
incubations, aliquots of assay buffer were collected from each well and stored at -20 °C prior to […]
(§2) Acute in vivo effects in lean mice For food intake studies, fasted (18 h) mice were given intraperitoneal (i.p) injections of peptides at a dose of 25, 100 or 250 nmol/kg bw. Mice were then allowed free access to normal chow for 180 mins and cumulative food intake measured. […]

BRIN-BD11 cells [2] = experiment: Intracellular Ca2+ in BRIN-BD11 cells (FLIPR Calcium 5); assay type: cell-based, rat; details: peptide 10^−6 mol/l, 5.6 mmol/l glucose, 5 min, AUC 0–300 s
Procedure: as §1

lean control mice [3] = experiment: Acute cumulative food intake in lean mice; assay type: in vivo, mouse; details: 250 nmol/kg i.p., 18 h fasted lean mice, 120 min post injection, vs saline
Procedure: (§3) Animals Acute animal studies were conducted in male NIH Swiss mice (12-14 weeks old, Harlan Ltd, UK) maintained on a standard rodent maintenance diet (10% fat, 30% protein and 60% carbohydrate, Trouw Nutrition, UK). Prior to commencement of longer term studies, all animals, except lean controls that continued on rodent maintenance diet, were maintained on a high-fat diet (45% fat, 35% carbohydrate and 20% protein, Special Diet Services, UK) for 12 weeks. This diet […]
(§4) individually in an air-conditioned room at 22 ± 2 °C with a 12 h light:12 h dark cycle and had free access to food and water. Animal experiments were carried out in accordance with the UK Animals (Scientific Procedures) Act 1986.
as §2, with “measured. For glucose homeostasis and” for “measured.”

lean control mice [4] = experiment: Acute glucose-lowering and insulin-releasing effects in lean mice; assay type: in vivo, mouse; details: 25 nmol/kg i.p. with glucose 18 mmol/kg, non-fasted lean mice, vs glucose alone
Procedure: Specific information on acute feeding, glucose homeostasis and insulin-secretory studies is given in ESM Methods. To assess the impact of GIP and neurotensin receptor activation on (DAla^2)GIP/xenin-8-Gln-induced glucose-lowering and insulin-secretory actions in mice, (DAla^2)GIP/xenin-8-Gln was administered by i.p. injection (25 nmol/kg body weight) in combination with glucose (18 mmol/kg) in the absence and presence of GIP(6-30)Cex-K^40[Pal] and SR142948A (both at 25 nmol/kg), and glucose and insulin were measured as described above. In a final series of experiments, test peptides (25 nmol/kg) or saline vehicle (0.9% wt/vol. NaCl) were injected 4 h before a glucose load (18 mmol/kg) in non-fasted mice and blood glucose and plasma insulin measured as above. […]
as §3, §4
as §2, with “measured. For glucose homeostasis and” for “measured.”

lean control mice [5] = experiment: Persistent glucose-lowering and insulin-releasing effects, peptide 4 h before glucose load; assay type: in vivo, mouse; details: 25 nmol/kg injected 4 h before i.p. glucose load 18 mmol/kg, non-fasted lean mice, vs saline
Procedure: Specific information on acute feeding, glucose homeostasis and insulin-secretory studies is given in ESM Methods. To assess the impact of GIP and neurotensin receptor activation on (DAla^2)GIP/xenin-8-Gln-induced glucose-lowering and insulin-secretory actions in mice, (DAla^2)GIP/xenin-8-Gln was administered by i.p. injection (25 nmol/kg body weight) in combination with glucose (18 mmol/kg) in the absence and presence of GIP(6-30)Cex-K^40[Pal] and SR142948A (both at 25 nmol/kg), and glucose and insulin were measured as described above. In a final series of experiments, test peptides (25 nmol/kg) or saline vehicle (0.9% wt/vol. NaCl) were injected 4 h before a glucose load (18 mmol/kg) in non-fasted mice and blood glucose and plasma insulin measured as above.

purified porcine DPP-4 = purified porcine DPP-4 (Sus scrofa, UniProt P22411); experiment: DPP-4 degradation / in vitro DPP-4 half-life; details: 20 μg peptide, 5 mU purified DPP-4, up to 12 h, HPLC
Procedure: Peptide (20 μg) DPP-4 degradation profiles (5 μl purified DPP-4, 5 mU; Sigma-Aldrich, UK) were assessed as described previously.
For calculation of experimental molecular masses, peptide samples (1 µg) were mixed with α-cyano-4-hydroxycinnamic acid (1 µg) and applied to a Voyager-DE BioSpectrometry Workstation and mass-to-charge (m/z) ratio verses peak intensity recorded by MALDI-TOF mass spectrometry. DPP-4 half-life was assessed by incubating peptides (37°C in 50 mmol/L TEA-HCl; pH 7.8) with 5 mU purified porcine DPP-4 for 0, 1, 2, 4, 8 and 12 h. Degradation profiles were obtained using rp-HPLC analysis and HPLC peak area data used to calculate percentage intact peptide remaining at each time point.

Chain of purified porcine DPP-4 (P22411 whole entry): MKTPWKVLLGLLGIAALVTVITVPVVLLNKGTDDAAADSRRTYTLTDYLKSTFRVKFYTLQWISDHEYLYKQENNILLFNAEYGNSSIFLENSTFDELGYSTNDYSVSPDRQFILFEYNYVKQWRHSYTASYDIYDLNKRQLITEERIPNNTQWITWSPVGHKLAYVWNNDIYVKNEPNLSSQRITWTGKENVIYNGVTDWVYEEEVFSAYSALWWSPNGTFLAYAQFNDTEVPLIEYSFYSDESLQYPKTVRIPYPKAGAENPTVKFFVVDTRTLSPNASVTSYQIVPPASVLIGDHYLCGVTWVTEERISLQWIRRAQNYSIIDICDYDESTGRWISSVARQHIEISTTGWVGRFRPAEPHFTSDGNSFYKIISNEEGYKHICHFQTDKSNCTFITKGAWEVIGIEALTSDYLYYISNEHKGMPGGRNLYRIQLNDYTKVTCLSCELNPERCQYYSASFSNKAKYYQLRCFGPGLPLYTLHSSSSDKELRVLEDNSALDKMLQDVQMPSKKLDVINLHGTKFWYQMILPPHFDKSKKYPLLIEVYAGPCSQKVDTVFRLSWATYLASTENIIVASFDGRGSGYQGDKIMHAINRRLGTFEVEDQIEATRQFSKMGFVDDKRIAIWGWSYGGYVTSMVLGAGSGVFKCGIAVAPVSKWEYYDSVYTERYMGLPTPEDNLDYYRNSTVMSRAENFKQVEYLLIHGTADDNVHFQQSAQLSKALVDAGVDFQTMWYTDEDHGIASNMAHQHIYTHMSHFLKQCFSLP

Row | Structure (SMILES) | Peptide-mediated insulin secretion in presence of neurotensin receptor antagonist SR142948A (BRIN-BD11 cells [1]) | Effect on intracellular Ca^2+ concentrations (BRIN-BD11 cells [2]) | Cumulative food intake (lean control mice [3]) | Blood glucose (lean control mice [4]; 30 min post injection) | Overall AUC blood glucose (lean control mice [4]) | Overall AUC for blood glucose after glucose challenge (lean control mice [5]) | Plasma insulin AUC after glucose challenge (lean control mice [5]) | Stability when incubated in the presence of DPP-4 (purified porcine DPP-4)
1 | CC[C@H](C)[C@H](NC(=O)[C@H](Cc1c[nH]c2ccccc12)NC(=O)[C@@H]1CCCN1C(=O)[C@H](CCC(N)=O)NC(=O)[C@H](CCC(N)=O)NC(=O)[C@@H]1CCCN1C(=O)[C@@H](N)Cc1c[nH]cn1)C(=O)N[C@@H](CC(C)C)C(=O)O [xenin-8-Gln] (H-HPQQPWIL-OH) | similar, but less prominent, effect | Neither, (DAla^2)GIP, xenin-8-Gln nor (DAla^2)GIP/xenin-8-Gln had any effect | significant (p < 0.05) reductions in food intake | significantly (p < 0.05) lowered blood glucose values | significantly (p < 0.05) decreased overall AUC blood glucose values | devoid of glucose-lowering or insulin-releasing effects | devoid of glucose-lowering or insulin-releasing effects | –
2 | CC[C@H](C)[C@H](NC(=O)[C@H](CO)NC(=O)[C@H](Cc1ccc(O)cc1)NC(=O)[C@H](CC(=O)O)NC(=O)[C@H](CO)NC(=O)[C@@H](NC(=O)[C@H](Cc1ccccc1)NC(=O)[C@@H](NC(=O)CNC(=O)[C@H](CCC(=O)O)NC(=O)[C@@H](C)NC(=O)[C@@H](N)Cc1ccc(O)cc1)[C@@H](C)O)[C@@H](C)CC)C(=O)N[C@@H](C)C(=O)N[C@@H](CCSC)C(=O)N[C@@H](Cc1c[nH]cn1)C(=O)N1CCC[C@H]1C(=O)N[C@@H](CCC(N)=O)C(=O)N[C@@H](CCC(N)=O)C(=O)N1CCC[C@H]1C(=O)N[C@@H](Cc1c[nH]c2ccccc12)C(=O)N[C@H](C(=O)N[C@@H](CC(C)C)C(=O)O)[C@@H](C)CC [(DAla^2)GIP/xenin-8-Gln] (H-Y[dA]EGTFISDYSIAMHPQQPWIL-OH) | – | – | – | – | – | – | – | remained fully intact
